From patent publication US20170037014A1, “FUNGICIDAL PYRAZOLES” (E. I. DU PONT DE NEMOURS AND COMPANY, priority 2014, published 2017)

Key:
[1] = tested on: Septoria tritici; experiment: Test B: wheat leaf blotch, preventive spray on wheat seedlings, visual disease rating; format: in vivo; settings: Zymoseptoria tritici, 50 ppm (*), 100 = 100% disease control, 0 = no control
Excerpt: General protocol for preparing test suspensions for Tests A-D: the test compounds were first dissolved in acetone in an amount equal to 3% of the final volume and then suspended at the desired concentration (in ppm) in acetone and purified water (50/50 mix by volume) containing 250 ppm of the surfactant Trem® 014 (polyhydric alcohol esters). The resulting test suspensions were then used in Tests A-D. The test suspension was sprayed to the point of run-off on wheat seedlings. The following day the seedlings were inoculated with a spore suspension of Septoria tritici (the causal agent of wheat leaf blotch) and incubated in a saturated atmosphere at 24° C. for 48 h, and then moved to a growth chamber at 20° C. for 19 days, after which time visual disease ratings were made. In the Table, a rating of 100 indicates 100% disease control and a rating of 0 indicates no disease control (relative to the controls). A dash (−) indicates no test results. All results are for 250 ppm except where followed by an “*” which indicates 50 ppm, and where followed by an “**” which indicates 10 ppm

[2] = tested on: Botrytis cinerea; experiment: Test C: tomato Botrytis, preventive spray on tomato seedlings, visual disease rating; format: in vivo; settings: Botrytis cinerea, 50 ppm (*), 100 = 100% disease control, 0 = no control
Excerpt: General protocol for preparing test suspensions for Tests A-D: the test compounds were first dissolved in acetone in an amount equal to 3% of the final volume and then suspended at the desired concentration (in ppm) in acetone and purified water (50/50 mix by volume) containing 250 ppm of the surfactant Trem® 014 (polyhydric alcohol esters). The resulting test suspensions were then used in Tests A-D. The test suspension was sprayed to the point of run-off on tomato seedlings. The following day the seedlings were inoculated with a spore suspension of Botrytis cinerea (the causal agent of tomato Botrytis) and incubated in a saturated atmosphere at 20° C. for 48 h, and then moved to a growth chamber at 24° C. for 3 days, after which time visual disease ratings were made. In the Table, a rating of 100 indicates 100% disease control and a rating of 0 indicates no disease control (relative to the controls). A dash (−) indicates no test results. All results are for 250 ppm except where followed by an “*” which indicates 50 ppm, and where followed by an “**” which indicates 10 ppm

[3] = tested on: Puccinia recondita f sp. tritici; experiment: Test A: wheat leaf rust, preventive spray on wheat seedlings, visual disease rating; format: in vivo; settings: 50 ppm (*), 100 = 100% disease control, 0 = no control
Excerpt: General protocol for preparing test suspensions for Tests A-D: the test compounds were first dissolved in acetone in an amount equal to 3% of the final volume and then suspended at the desired concentration (in ppm) in acetone and purified water (50/50 mix by volume) containing 250 ppm of the surfactant Trem® 014 (polyhydric alcohol esters). The resulting test suspensions were then used in Tests A-D. The test suspension was sprayed to the point of run-off on wheat seedlings. The following day the seedlings were inoculated with a spore suspension of Puccinia recondita f sp. tritici (the causal agent of wheat leaf rust) and incubated in a saturated atmosphere at 20° C. for 24 h, and then moved to a growth chamber at 20° C. for 7 days, after which time visual disease ratings were made. In the Table, a rating of 100 indicates 100% disease control and a rating of 0 indicates no disease control (relative to the controls). A dash (−) indicates no test results. All results are for 250 ppm except where followed by an “*” which indicates 50 ppm, and where followed by an “**” which indicates 10 ppm

[4] = tested on: Blumeria graminis f sp. tritici; experiment: Test D: wheat powdery mildew, preventive spray on wheat seedlings, visual disease rating; format: in vivo; settings: Blumeria graminis, 50 ppm (*), 100 = 100% disease control, 0 = no control
Excerpt: General protocol for preparing test suspensions for Tests A-D: the test compounds were first dissolved in acetone in an amount equal to 3% of the final volume and then suspended at the desired concentration (in ppm) in acetone and purified water (50/50 mix by volume) containing 250 ppm of the surfactant Trem® 014 (polyhydric alcohol esters). The resulting test suspensions were then used in Tests A-D. The test suspension was sprayed to the point of run-off on wheat seedlings. The following day the seedlings were inoculated with a spore dust of Blumeria graminis f sp. tritici, (also known as Erysiphe graminis f. sp. tritici, the causal agent of wheat powdery mildew) and incubated in a growth chamber at 20° C. for 8 days, after which time visual disease ratings were made. In the Table, a rating of 100 indicates 100% disease control and a rating of 0 indicates no disease control (relative to the controls). A dash (−) indicates no test results. All results are for 250 ppm except where followed by an “*” which indicates 50 ppm, and where followed by an “**” which indicates 10 ppm

melting point [°C] | Structure (SMILES) | pest or weed control at 50 ppm [1] [%] | pest or weed control at 50 ppm [2] [%] | pest or weed control at 50 ppm [3] [%] | pest or weed control at 50 ppm [4] [%]
152 to 154 | Cc1nn(C)c(C(C)C)c1C(O)c1ccc(F)cc1Cl (stereo not drawn) [Compound 1, α-(2-chloro-4-fluorophenyl)-1,3-dimethyl-5-(1-methylethyl)-1H-pyrazole-4-methanol] | 100 | 33 | 98 | 97
175 to 178 | CCC(C)c1c(C(O)c2c(Cl)cccc2Cl)c(C)nn1C (stereo not drawn) [Compound 24, α-(2,6-dichlorophenyl)-1,3-dimethyl-5-(1-methylpropyl)-1H-pyrazole-4-methanol] | 69 | 40 | 99 | 84
